Results: patent US20230085307A1, “PYRIDAZINONE COMPOUND AND HERBICIDE” (NISSAN CHEMICAL CORPORATION, priority 2019, published 2023)

Key:
[1] = test system: barnyard grass; experiment: Test Example 5: herbicidal effect by foliage application, plastic box (Table 20, symbol H); type: in vivo, barnyard grass (Echinochloa crus-galli)
Method in brief: (§1)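 Plants were sown into sterilized diluvial soil under about 1.5 cm cover and kept in a greenhouse at 25° C. to 30° C. Fourteen days on, foliage received an even spray of the diluted emulsion. Herbicidal or crop effect was judged three weeks afterwards.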

[2] = test system: rice flat sedge; experiment: Test Example 3: herbicidal effect by foliage application, Wagner pot (Table 18, symbol E); type: in vivo, rice flat sedge (Cyperus iria)
Method in brief: (§2)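 Plants were sown in alluvial soil held under 0.1–0.5 cm standing water and grown 14 days in a greenhouse at 25–30 °C. An emulsifiable formulation, water-diluted to the set dose, was then sprayed onto the foliage, and effects were scored three weeks later using previously defined criteria.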

[3] = test system: persian speedwell; experiment: Test Example 5: herbicidal effect by foliage application, plastic box (Table 20, symbol R); type: in vivo, Persian speedwell (Veronica persica)
Method in brief: as §1

[4] = test system: Chinese sprangletop; experiment: Test Example 3: herbicidal effect by foliage application, Wagner pot (Table 18, symbol D); type: in vivo, chinese sprangletop (Leptochloa chinensis)
Method in brief: as §2

[5] = test system: late watergrass; experiment: Test Example 1: herbicidal activity, application before weed generation under submerged conditions (Table 16, symbol A); type: in vivo, late watergrass (Echinochloa oryzicola); settings: for Herbicidal effect, A: late watergrass: amount of applied herbicide 320 g/ha
Method in brief: (§3)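 Alluvial soil was flooded to 4 cm depth, weed seeds were sown mixed and 2.5-leaf rice seedlings were transplanted. On sowing day, the compound's emulsion, diluted in water to a set dose, was applied to the water surface. Plants grew at 25–30 °C and were scored 0–5 after three weeks.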

[6] = test system: Japanese bulrush; experiment: Test Example 1: herbicidal activity, application before weed generation under submerged conditions (Table 16, symbol B); type: in vivo, Japanese bulrush (Schoenoplectus juncoides); settings: for Herbicidal effect, B: Japanese bulrush: amount of applied herbicide 320 g/ha
Method in brief: as §3

[7] = test system: lambsquarters; experiment: Test Example 5: herbicidal effect by foliage application, plastic box (Table 20, symbol O); type: in vivo, lambsquarters (Chenopodium album)
Method in brief: as §1

[8] = test system: Italian ryegrass; experiment: Test Example 5: herbicidal effect by foliage application, plastic box (Table 20, symbol K); type: in vivo, Italian ryegrass (Lolium multiflorum)
Method in brief: as §1

[9] = test system: velvetleaf; experiment: Test Example 5: herbicidal effect by foliage application, plastic box (Table 20, symbol M); type: in vivo, velvetleaf (Abutilon theophrasti)
Method in brief: as §1

[10] = test system: blackgrass; experiment: Test Example 5: herbicidal effect by foliage application, plastic box (Table 20, symbol J); type: in vivo, blackgrass (Alopecurus myosuroides)
Method in brief: as §1

[11] = test system: oval-leafed pondweed; experiment: Test Example 1: herbicidal activity, application before weed generation under submerged conditions (Table 16, symbol C); type: in vivo, oval-leafed pondweed (Monochoria vaginalis); settings: for Herbicidal effect, C: oval-leafed pondweed: amount of applied herbicide 320 g/ha
Method in brief: as §3

[12] = test system: barnyard grass; experiment: Test Example 3: herbicidal effect by foliage application, Wagner pot (Table 18, symbol H); type: in vivo, barnyard grass (Echinochloa crus-galli)
Method in brief: as §2

[13] = test system: southern crabgrass; experiment: Test Example 5: herbicidal effect by foliage application, plastic box (Table 20, symbol F); type: in vivo, southern crabgrass (Digitaria ciliaris)
Method in brief: as §1

[14] = test system: chickweed; experiment: Test Example 5: herbicidal effect by foliage application, plastic box (Table 20, symbol P); type: in vivo, common chickweed (Stellaria media)
Method in brief: as §1

[15] = test system: green foxtail; experiment: Test Example 5: herbicidal effect by foliage application, plastic box (Table 20, symbol G); type: in vivo, green foxtail (Setaria viridis)
Method in brief: as §1

[16] = test system: windgrass; experiment: Test Example 5: herbicidal effect by foliage application, plastic box (Table 20, symbol L); type: in vivo, windgrass (Apera spica-venti)
Method in brief: as §1

[17] = test system: wild oat; experiment: Test Example 5: herbicidal effect by foliage application, plastic box (Table 20, symbol I); type: in vivo, wild oat (Avena fatua)
Method in brief: as §1

[18] = test system: redroot pigweed; experiment: Test Example 5: herbicidal effect by foliage application, plastic box (Table 20, symbol N); type: in vivo, redroot pigweed (Amaranthus retroflexus)
Method in brief: as §1

[19] = 320 g/ha, foliage application after 14-day growth, evaluated three weeks after application
[20] = foliage application, AAH 320 g/ha, three weeks after application
[21] = amount of applied herbicide 320 g/ha, foliage application after 14-day growth, evaluated three weeks after application
[22] = foliage application, 320 g/ha, three weeks after application
[23] = amount of applied herbicide 320 g/ha

COc1ccc(-c2sc3c(F)cccc3c2-c2c(O)c(C)nn(C)c2=O)cc1OC [4-013]
herbicidal effect on H: barnyard grass (evaluation grade 0-5) [1, 19]: 1 (Herbicidal rate of 5% or more and less than 20%)
herbicidal effect on rice flat sedge (E) ([2]; 320 g/ha): 4 (Herbicidal rate of 70% or more and less than 90%)
herbicidal effect on R: persian speedwell (evaluation grade 0-5) [3, 19]: 5 (Herbicidal rate of 90% or more (almost completely withered))
herbicidal effect on Chinese sprangletop (D) ([4]; 320 g/ha): 3 (Herbicidal rate of 40% or more and less than 70%)
Herbicidal effect, A: late watergrass [5]: 3 (Herbicidal rate of 40% or more and less than 70%)
Herbicidal effect, B: Japanese bulrush [6]: 0 (Herbicidal rate of 5% or less (almost no effect))
herbicidal effect on O: lambsquarters (evaluation grade 0-5) [7, 19]: 0 (Herbicidal rate of 5% or less (almost no effect))
herbicidal effect on K: Italian ryegrass (evaluation grade 0-5) [8, 19]: 4 (Herbicidal rate of 70% or more and less than 90%)
herbicidal effect on M: velvetleaf (evaluation grade 0-5) [9, 19]: 3 (Herbicidal rate of 40% or more and less than 70%)
herbicidal effect on J: blackgrass (evaluation grade 0-5) [10, 19]: 3 (Herbicidal rate of 40% or more and less than 70%)
Herbicidal effect, C: oval-leafed pondweed [11]: 3 (Herbicidal rate of 40% or more and less than 70%)
herbicidal effect on barnyard grass (H) ([12]; 320 g/ha): 3 (Herbicidal rate of 40% or more and less than 70%)
herbicidal effect on F: southern crabgrass (evaluation grade 0-5) [13, 19]: 1 (Herbicidal rate of 5% or more and less than 20%)
herbicidal effect on P: chickweed (evaluation grade 0-5) [14, 19]: 5 (Herbicidal rate of 90% or more (almost completely withered))
herbicidal effect on G: green foxtail (evaluation grade 0-5) [15, 19]: 5 (Herbicidal rate of 90% or more (almost completely withered))
herbicidal effect on L: windgrass (evaluation grade 0-5) [16, 19]: 0 (Herbicidal rate of 5% or less (almost no effect))
herbicidal effect on I: wild oat (evaluation grade 0-5) [17, 19]: 0 (Herbicidal rate of 5% or less (almost no effect))
herbicidal effect on N: redroot pigweed (evaluation grade 0-5) [18, 19]: 0 (Herbicidal rate of 5% or less (almost no effect))

COc1cccc(OC)c1-c1sc2ccccc2c1-c1c(O)c(C)nn(C)c1=O [1-158]
H: barnyard grass, herbicidal effect [1, 20]: 0 (Herbicidal rate of 5% or less (almost no effect))
herbicidal effect on E (rice flat sedge), rating 0-5 ([2]; 320 g/ha): 0 (Herbicidal rate of 5% or less (almost no effect))
R: persian speedwell, herbicidal effect [3, 20]: 5 (Herbicidal rate of 90% or more (almost completely withered))
herbicidal effect on D (Chinese sprangletop), rating 0-5 ([4]; 320 g/ha): 0 (Herbicidal rate of 5% or less (almost no effect))
Herbicidal effect on A: late watergrass (grade 0-5) ([5]; 320 g/ha applied herbicide): 0 (Herbicidal rate of 5% or less (almost no effect))
Herbicidal effect on B: Japanese bulrush (grade 0-5) ([6]; 320 g/ha applied herbicide): 2 (Herbicidal rate of 20% or more and less than 40%)
O: lambsquarters, herbicidal effect [7, 20]: 0 (Herbicidal rate of 5% or less (almost no effect))
K: Italian ryegrass, herbicidal effect [8, 20]: 0 (Herbicidal rate of 5% or less (almost no effect))
M: velvetleaf, herbicidal effect [9, 20]: 0 (Herbicidal rate of 5% or less (almost no effect))
J: blackgrass, herbicidal effect [10, 20]: 0 (Herbicidal rate of 5% or less (almost no effect))
Herbicidal effect on C: oval-leafed pondweed (grade 0-5) ([11]; 320 g/ha applied herbicide): 0 (Herbicidal rate of 5% or less (almost no effect))
herbicidal effect on H (barnyard grass), rating 0-5 ([12]; 320 g/ha): 2 (Herbicidal rate of 20% or more and less than 40%)
F: southern crabgrass, herbicidal effect [13, 20]: 0 (Herbicidal rate of 5% or less (almost no effect))
P: chickweed, herbicidal effect [14, 20]: 5 (Herbicidal rate of 90% or more (almost completely withered))
G: green foxtail, herbicidal effect [15, 20]: 0 (Herbicidal rate of 5% or less (almost no effect))
L: windgrass, herbicidal effect [16, 20]: 0 (Herbicidal rate of 5% or less (almost no effect))
I: wild oat, herbicidal effect [17, 20]: 0 (Herbicidal rate of 5% or less (almost no effect))
N: redroot pigweed, herbicidal effect [18, 20]: 0 (Herbicidal rate of 5% or less (almost no effect))

Cc1nn(C)c(=O)c(-c2c(-c3cccc4c3OCC4)sc3c(Cl)cccc23)c1O [4-098]
Herbicidal effect by foliage application, H: barnyard grass [1, 21]: 1 (Herbicidal rate of 5% or more and less than 20%)
herbicidal effect on rice flat sedge (E) ([2]; 320 g/ha): 3 (Herbicidal rate of 40% or more and less than 70%)
Herbicidal effect by foliage application, R: persian speedwell [3, 21]: 5 (Herbicidal rate of 90% or more (almost completely withered))
herbicidal effect on Chinese sprangletop (D) ([4]; 320 g/ha): 3 (Herbicidal rate of 40% or more and less than 70%)
Herbicidal effect, A: late watergrass [5]: 3 (Herbicidal rate of 40% or more and less than 70%)
Herbicidal effect, B: Japanese bulrush [6]: 0 (Herbicidal rate of 5% or less (almost no effect))
Herbicidal effect by foliage application, O: lambsquarters [7, 21]: 3 (Herbicidal rate of 40% or more and less than 70%)
Herbicidal effect by foliage application, K: Italian ryegrass [8, 21]: 0 (Herbicidal rate of 5% or less (almost no effect))
Herbicidal effect by foliage application, M: velvetleaf [9, 21]: 3 (Herbicidal rate of 40% or more and less than 70%)
Herbicidal effect by foliage application, J: blackgrass [10, 21]: 0 (Herbicidal rate of 5% or less (almost no effect))
Herbicidal effect, C: oval-leafed pondweed [11]: 0 (Herbicidal rate of 5% or less (almost no effect))
herbicidal effect on barnyard grass (H) ([12]; 320 g/ha): 4 (Herbicidal rate of 70% or more and less than 90%)
Herbicidal effect by foliage application, F: southern crabgrass [13, 21]: 3 (Herbicidal rate of 40% or more and less than 70%)
Herbicidal effect by foliage application, P: chickweed [14, 21]: 5 (Herbicidal rate of 90% or more (almost completely withered))
Herbicidal effect by foliage application, G: green foxtail [15, 21]: 3 (Herbicidal rate of 40% or more and less than 70%)
Herbicidal effect by foliage application, L: windgrass [16, 21]: 2 (Herbicidal rate of 20% or more and less than 40%)
Herbicidal effect by foliage application, I: wild oat [17, 21]: 0 (Herbicidal rate of 5% or less (almost no effect))
Herbicidal effect by foliage application, N: redroot pigweed [18, 21]: 3 (Herbicidal rate of 40% or more and less than 70%)

CSCCOc1ccc(-c2sc3ccc(F)cc3c2-c2c(OCCSC)c(C)nn(C)c2=O)cc1 [2-420]
H: barnyard grass, herbicidal effect grade [1, 22]: 5 (Herbicidal rate of 90% or more (almost completely withered))
herbicidal effect on E: rice flat sedge [2, 23]: 4 (Herbicidal rate of 70% or more and less than 90%)
R: persian speedwell, herbicidal effect grade [3, 22]: 4 (Herbicidal rate of 70% or more and less than 90%)
herbicidal effect on D: Chinese sprangletop [4, 23]: 3 (Herbicidal rate of 40% or more and less than 70%)
Herbicidal effect, A: late watergrass [5]: 2 (Herbicidal rate of 20% or more and less than 40%)
Herbicidal effect, B: Japanese bulrush [6]: 3 (Herbicidal rate of 40% or more and less than 70%)
O: lambsquarters, herbicidal effect grade [7, 22]: 5 (Herbicidal rate of 90% or more (almost completely withered))
K: Italian ryegrass, herbicidal effect grade [8, 22]: 1 (Herbicidal rate of 5% or more and less than 20%)
M: velvetleaf, herbicidal effect grade [9, 22]: 4 (Herbicidal rate of 70% or more and less than 90%)
J: blackgrass, herbicidal effect grade [10, 22]: 4 (Herbicidal rate of 70% or more and less than 90%)
Herbicidal effect, C: oval-leafed pondweed [11]: 0 (Herbicidal rate of 5% or less (almost no effect))
herbicidal effect on H: barnyard grass [12, 23]: 5 (Herbicidal rate of 90% or more (almost completely withered))
F: southern crabgrass, herbicidal effect grade [13, 22]: 4 (Herbicidal rate of 70% or more and less than 90%)
P: chickweed, herbicidal effect grade [14, 22]: 4 (Herbicidal rate of 70% or more and less than 90%)
G: green foxtail, herbicidal effect grade [15, 22]: 4 (Herbicidal rate of 70% or more and less than 90%)
L: windgrass, herbicidal effect grade [16, 22]: 4 (Herbicidal rate of 70% or more and less than 90%)
I: wild oat, herbicidal effect grade [17, 22]: 0 (Herbicidal rate of 5% or less (almost no effect))
N: redroot pigweed, herbicidal effect grade [18, 22]: 5 (Herbicidal rate of 90% or more (almost completely withered))
